Measured values published in patent US12319696B2, “2,6-dimethyl-n-((pyridin-4-yl)methyl)imidazo[1,2-b]pyridazin-8-amine and 2,5-dimethyl-n-[(pyridin-4-yl)methyl]pyrazolo[1,5-a]pyrimidin-7-amine derivatives for treating viral infections” (CUROVIR AB, priority 2018, dated 2025).

Assays:
enterovirus D68 = experiment: Antiviral CPE inhibition assay in mammalian cell culture, EV-D68; type: cell-based; details: Enterovirus D, EVD68, inhibition of viral CPE
in vivo = experiment: in vivo; parameters: species or system Sprague Dawley rats; details: male, Sprague Dawley, rat, po, 10 mg/kg
Procedure: 10 mg of the compound was weighed and transferred to graduated tube. Then 500 μL of DMA (5% v/v) was added, vortex mixed thoroughly and sonicated till test item was completely dissolved. Then 5 mL of PEG 200 (50% v/v) were added, and vortex mixed thoroughly. Thereafter, Sterile Water for Injection (SWFI) was added in small increments and vortex mixed thoroughly. Finally, the volume was made up to 10 mL with SWFI (45% v/v) to obtain a clear solution with final formulation strength of 1 mg/mL. […] Formulation was freshly prepared before the administration to animals. Adult healthy male Sprague Dawley rats aged 8-10 weeks were used for experimentation after a minimum 3 days of acclimation. Fasted animals were administered with test compound in recommended vehicle (5% DMA+50% PEG 200+45% SWFI) by oral route at a dose of 10 mg/kg body weight and at dose volume of 10 mL/kg body weight. Under mild isoflurane anesthesia, blood specimens were collected into pre-labeled tubes containing anticoagulant (K2EDTA—2 mg/mL blood) at different time points post dose.

[1] = Metabolic stability in human liver microsomes; type: in vitro ADME; details: 5 μM test item, 0.25 mg/mL microsomal protein
Procedure: (§1) Metabolic stability assay was carried out using Human/Rat liver microsomes. […] Test item/Control items were incubated with Human/Rat liver microsomes with cofactors and without cofactors. The reaction mixture (100 μL) was removed at specified time period and the reaction was stopped by addition of stop solution. The samples were extracted in presence of internal standard and were analyzed using LC-MS/MS. The percent of the test/Control item remaining after specified incubation period was calculated with respect to the peak area ratio at time 0 min. […] The reaction mixture was incubated further at 37° C. for specified incubation time points (With Cofactors: 0, 15, 30, 60 and 120 min; Without Cofactors: 0 and 120 min). 100 μL incubation samples of test items and Control items at specified incubation time points were transferred to respective tubes for sample extraction. Test and Control item specimens were extracted by Protein precipitation method. A 100 μL incubation sample at each time point was added to tubes containing 200 μL of ice-cold acetonitrile and 50 μL Haloperidol solution (0.5 μg/mL). Then the tubes were vortex mixed thoroughly and centrifuged at 10000 rpm for 10 minutes at 4° C. A clear supernatant of 200 μL of samples were submitted for LC-MS/MS analysis.

CYP3A4 = biological target: T1, CYP3A4 (Homo sapiens, UniProt P08684); experiment: In vitro CYP 3A4 enzyme inhibition in human liver microsomes by probe substrate method; type: in vitro ADME; details: human liver microsomes 0.5 mg/mL; probe substrate Midazolam 5 μM
T1 construct: from tissue; host or cells: human liver microsomes
Procedure: In Vitro CYP 3A4 Enzyme Inhibition Study in Human Liver Microsomes by Probe Substrate Method
In vitro CYP3A4 enzyme inhibition assay was performed using Human liver microsomes at 0.5 mg/mL concentration. Ketoconazole was used as reference inhibitor and Midazolam was used as selective probe substrate for CYP 3A4 enzyme. Serial dilution of test/control items was prepared in potassium phosphate buffer (50 mM, pH 7.40) to obtain eight concentrations each in a 1:4 dilution pattern. The percentage of acetonitrile/DMSO was maintained at 2.5%/0.25% in 2.5× serially diluted control/test item solutions respectively. The final percentage of acetonitrile/DMSO was 1%/0.1% respectively. Intermediate solutions such as 10× working solution (5 mg/mL) of Human liver microsomal solution, 10× concentration of reference probe substrates in buffer, 5× concentrations of Cofactors (5.0 mM NADP+, 25.0 mM G-6-P, 3.0 IU/mL G-6-PDH and 10.0 mM MgCl2) were prepared in potassium phosphate buffer. The final concentration of liver microsomes in the reaction mixture was 0.5 mg/mL, cofactors was 1.0 mM NADP+, 5.0 mM G-6-P, 0.6 IU/mL G-6-PDH and 2.0 mM MgCl2. Midazolam was tested at 5 μM test concentration. 40 μL of 2.5× serially diluted test/control item solutions and 10 μL of […] liver microsomal solution were added to 96 well plate and incubated for 10 min at 37° C. with shaking condition (400 rpm) using Thermomixer. After pre incubation, 20 μL of potassium phosphate buffer, 10 μL of respective probe substrate working solution and 20 μL of cofactor mix was added.

[2] = test system: coxsackie B virus strain 3; experiment: Antiviral CPE inhibition assay in mammalian cell culture, Cox B3; type: cell-based
[3] = Human plasma protein binding (Rapid Equilibrium Dialysis); type: in vitro ADME; details: pH 7.4, RED device, 37° C.
Procedure: (§2) Plasma protein binding study was performed using a Rapid Equilibrium Dialysis (RED) device containing dialysis membrane with a molecular weight cut-off of 8,000 Daltons. Each dialysis insert contained two chambers. The red chamber was for the plasma while the white chamber was for the buffer. Test items and Control items (Warfarin and Propranolol) were prepared at a required test concentration of 10 μM in Human/Rat plasma (pH adjusted to 7.40) using 10 mM DMSO stocks (final DMSO concentration was 0.1%). 300 μL of plasma sample was added into the sample chamber. 500 μL of buffer was added into the buffer chamber. After sealing the RED device with an adhesive film, incubation was done at 37° C. with shaking at 300 rpm for 4 h. Following incubation, an aliquot of 50 μL was removed from each well (plasma and buffer side) and diluted with equal volume of opposite matrix to nullify the matrix effect and subjected for sample extraction.
(§3) All samples were extracted by Protein Precipitation method by adding 200 μL of ice cold Acetonitrile and 50 μL of internal standard (Haloperidol at 0.1 μg/mL) solution. The tubes were vortex mixed thoroughly and centrifuged at 10000 rpm, 4° C. for 10 minutes. A clear supernatant of 200 μL of samples were submitted for LC-MS/MS analysis.

[4] = test system: coxsackie B virus strain 1; experiment: Antiviral CPE inhibition assay in mammalian cell culture, Cox B1; type: cell-based
[5] = Rat plasma protein binding (Rapid Equilibrium Dialysis); type: in vitro ADME; details: pH 7.4, RED device, 37° C.
Procedure: as §2, §3

[6] = Metabolic stability in rat liver microsomes; type: in vitro ADME; details: 5 μM test item, 0.25 mg/mL microsomal protein
Procedure: as §1

polio virus strain 1 = experiment: organism not typed; type: cell-based
[7] = test system: coxsackie B virus strain 5; experiment: Antiviral CPE inhibition assay in mammalian cell culture, Cox B5; type: cell-based
enterovirus strain 30 = experiment: Antiviral CPE inhibition assay in mammalian cell culture, EV30; type: cell-based; details: inhibition of viral CPE
[8] = test system: coxsackie B virus strain 2; experiment: Antiviral CPE inhibition assay in mammalian cell culture, Cox B2; type: cell-based
enterovirus strain 71 = experiment: Antiviral CPE inhibition assay in mammalian cell culture, EV71; type: cell-based; details: inhibition of viral CPE
enterovirus strain 6 = experiment: microbe, parasite or virus in culture; type: cell-based; details: inhibition of viral CPE
[9] = mice; cited from earlier work

T1 sequence (P08684 whole entry): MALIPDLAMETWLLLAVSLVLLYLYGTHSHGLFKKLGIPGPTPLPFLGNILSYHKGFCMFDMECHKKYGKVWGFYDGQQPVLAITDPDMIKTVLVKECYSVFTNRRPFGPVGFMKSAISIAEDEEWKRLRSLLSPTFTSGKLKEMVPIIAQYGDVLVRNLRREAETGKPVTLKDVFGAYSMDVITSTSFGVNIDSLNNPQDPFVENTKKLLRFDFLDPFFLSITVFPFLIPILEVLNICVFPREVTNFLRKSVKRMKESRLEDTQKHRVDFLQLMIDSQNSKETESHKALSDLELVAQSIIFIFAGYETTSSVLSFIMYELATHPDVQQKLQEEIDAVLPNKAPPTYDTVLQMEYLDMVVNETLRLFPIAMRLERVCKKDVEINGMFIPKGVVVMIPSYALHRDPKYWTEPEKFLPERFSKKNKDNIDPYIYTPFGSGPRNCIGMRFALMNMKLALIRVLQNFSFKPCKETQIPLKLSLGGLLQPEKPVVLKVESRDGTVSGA

Compound: Cc1cc(CNc2cc(C)nc3c(-c4ccc5c(c4)c(C)nn5C)c(C)nn23)ccn1 [Ex. 4, 3-(1,3-dimethyl-1H-indazol-5-yl)-2,5-dimethyl-N-[(2-methylpyridin-4-yl)methyl]pyrazolo[1,5-a]pyrimidin-7-amine]
- inhibition at 0.01 µM (enterovirus D68; 10 nM, read-out: Inh. at 10 nM, EV-D68): 81%
- inhibition at 0.1 µM (enterovirus D68; 100 nM, read-out: Inh. at 100 nM, EV-D68): 70%
- AUC(0-inf) (in vivo): 27400 ± 10100 ng·h/mL
- AUC(0-t) (in vivo): 25200 ± 10000 ng·h/mL
- AUCextrap (in vivo): 8.5 ± 5.2%
- Cmax (in vivo): 2500 ± 900 ng/mL
- MRT last (in vivo): 6.7 ± 0.6 h
- Tmax (in vivo): 1.3 ± 0.6 h
- half-life (in vivo): 6.8 ± 1.5 h
- % remaining after incubation for 60 min, Human microsomes [1]: 90.0%
- IC50 (CYP3A4): > 25 µM
- inhibition at 0.01 µM ([2]; read-out: Inh. at 10 nM, Cox B3): 100%
- inhibition at 0.1 µM ([2]; read-out: Inh. at 100 nM, Cox B3): 100%
- fraction unbound at 4 h, 10 μM [3]: 0.015
- inhibition at 0.01 µM ([4]; read-out: Inh. at 10 nM, Cox B1): 100%
- inhibition at 0.1 µM ([4]; read-out: Inh. at 100 nM, Cox B1): 100%
- fraction unbound at 4 h, 10 μM [5]: 0.017
- % remaining after incubation for 60 min, Rat microsomes [6]: 84.0%
- inhibition at 0.01 µM (polio virus strain 1; read-out: Inh. at 10 nM, Polio 1): 100%
- inhibition at 0.1 µM (polio virus strain 1; read-out: Inh. at 100 nM, Polio 1): 100%
- inhibition at 0.01 µM ([7]; read-out: Inh. at 10 nM, Cox B5): 74%
- inhibition at 0.1 µM ([7]; read-out: Inh. at 100 nM, Cox B5): 100%
- inhibition at 0.01 µM (enterovirus strain 30; 10 nM, read-out: Inh. at 10 nM, EV30): 100%
- inhibition at 0.1 µM (enterovirus strain 30; 100 nM, read-out: Inh. at 100 nM, EV30): 100%
- inhibition at 0.01 µM ([8]; read-out: Inh. at 10 nM, Cox B2): 100%
- inhibition at 0.1 µM ([8]; read-out: Inh. at 100 nM, Cox B2): 100%
- inhibition at 0.01 µM (enterovirus strain 71; 10 nM, read-out: Inh. at 10 nM, EV71): 76%
- inhibition at 0.1 µM (enterovirus strain 71; 100 nM, read-out: Inh. at 100 nM, EV71): 79%
- inhibition at 0.01 µM (enterovirus strain 6; 10 nM, read-out: Inh. at 10 nM, EV6): 100%
- inhibition at 0.1 µM (enterovirus strain 6; 100 nM, read-out: Inh. at 100 nM, EV6): 100%

Compound: COc1ccc(-c2c(C)nn3c(NCCN4CCOCC4)cc(C)nc23)cc1OC [T-00127-HEV1, 3-(3,4-dimethoxyphenyl)-2,5-dimethyl-N-(2-morpholinoethyl)pyrazolo[1,5-a]pyrimidin-7-amine]
- mortality when tested in-vivo [9]: induced mortality in mice
